Laboratory results reported in patent US7503967B2, “Azo compound, ink composition and colored article” (Nippon Kayaku Kabushiki Kaisha, priority 2004, dated 2009).

Assay: solubility in water of the azo compound
Format: physicochemical
Details: mixed salt of lithium and sodium

SMILES | solubility [mg/mL]
Nc1c(N=Nc2ccc3c(O)c(N=Nc4ccc(N=Nc5ccc(S(=O)(=O)O)cc5)cc4S(=O)(=O)O)c(S(=O)(=O)O)cc3c2S(=O)(=O)O)cc(S(=O)(=O)O)c2cc(S(=O)(=O)O)c(N=Nc3ccc([N+](=O)[O-])cc3S(=O)(=O)O)c(O)c12 [compound 1] | ≥ 100
Nc1c(N=Nc2ccc3c(O)c(N=Nc4ccc(N=Nc5ccc(S(=O)(=O)O)cc5)cc4S(=O)(=O)O)c(S(=O)(=O)O)cc3c2S(=O)(=O)O)cc(S(=O)(=O)O)c2cc(S(=O)(=O)O)c(N=Nc3ccc(S(=O)(=O)O)cc3[N+](=O)[O-])c(O)c12 [compound 3] | ≥ 100
Cc1cc(N=Nc2c(S(=O)(=O)O)cc3c(S(=O)(=O)O)c(N=Nc4cc(S(=O)(=O)O)c5cc(S(=O)(=O)O)c(N=Nc6ccc([N+](=O)[O-])cc6S(=O)(=O)O)c(O)c5c4N)ccc3c2O)c(OCCCS(=O)(=O)O)cc1N=Nc1ccc([N+](=O)[O-])cc1S(=O)(=O)O [compound 16] | ≥ 100
Cc1cc(N=Nc2c(S(=O)(=O)O)cc3c(S(=O)(=O)O)c(N=Nc4cc(S(=O)(=O)O)c5cc(S(=O)(=O)O)c(N=Nc6ccc([N+](=O)[O-])cc6S(=O)(=O)O)c(O)c5c4N)ccc3c2O)c(OCCCS(=O)(=O)O)cc1N=Nc1ccc(S(=O)(=O)O)cc1C(=O)O [compound 21] | ≥ 100
